Source: article PMC4874011, “Identification and functional characterization of the sulfate transporter gene GmSULTR1;2b in soybean” (BMC Genomics, 2016)

System: T1, GmSULTR1;2b
T1 construct: C-terminal STAS domain
Assay: […]-sulfate uptake in sul1 sul2 yeast cells, Michaelis-Menten fit
Type: cell-based, Glycine max
Settings: pH 6.0; proton-coupled uptake; yeast CP154-7A; labelled compound

Work on `O=S(=O)(O)O` [sulfate] yielded a Km of 9.5 ± 1.7 µM.
